From patent US20100047191A1, “NOVEL USE” (priority 2007, published 2010)

Legend:
[1] = 20-day in vitro erosion cycling study (microhardness); design: species or system human
From the text: Human enamel specimens (3×3 mm) were ground and polished using silicon carbide paper. The top side of the specimens was ground using 1200-grit paper and then serially polished using 4000-grit paper followed by […] diamond polishing suspension. Each specimen was mounted on the end of an acrylic rod (¼″ diameter×2″ long) using superglue. The sides of each specimen were covered with an epoxy resin so that only the enamel surface was exposed. Eighteen specimens per group were used for the study. Each group was composed of 3 subgroups of 6 specimens. Initial hardness of the sound specimens was determined using a Vickers hardness indenter by applying a load of 200 g for 15 seconds. The average specimen microhardness was determined from four indentations on the surface of each specimen. Only specimens with a sound surface hardness of between 300 and 350 were accepted. A 50:50 mixture of pooled, human saliva and a mineral solution was used as the remineralisation medium in all treatment regimens, and the demineralising solution was 1% citric acid, pH 3.8. The four treatments considered were: Group A) Deionised water, Group B) 300 ppm Fluoride, Group C) 0.50 wt % ZnO in deionized water, Group D) 0.50 wt % ZnO in 300 ppm Fluoride. […] The cyclic treatment regimen consisted of five, two-minute acid challenges in the demineralizing solution and three, two-minute treatment periods (with stirring at 350 rpm). After each treatment, the specimens were rinsed with running deionized water and then placed back into the saliva remineralization system. This regimen was repeated for 10 days, after which time the specimens were analysed by remeasuring their microhardness. A further 10 days of cycling was then performed and a 20 day microhardness value measured.
Statistical analysis of the data above in Graph 4 was performed with a one-way analysis of variance using Sigma Stat (3.0) Software. ANOVA indicated a significant difference so pair wise comparisons between the groups was conducted (Student Newman Keuls test).

[2] = Enamel anti-caries softening microhardness study (lactic acid buffer); design: species or system human; settings: two cycles of 2 minute treatment and two hours 0.1M lactic acid buffer pH 4.5
Protocol: The study performed involved incubation of human enamel in 0.1M lactic acid buffer (pH 4.5), following a 2 minute treatment with one of the following four formulations: (A) 0.5% suspension of nano ZnO. […] (D) de-ionised water. The zinc oxide used was Nanoshield ZN-3008C as described above in Example 4. Specimens were washed with water in between treatments and erosion procedures. The acid exposure time was two hours, after which the specimens were rinsed in de-ionised water and re-treated with the appropriate formulation for 2 minutes. The specimens then were placed into the lactic acid for a further two hours. After the acid challenge they were washed thoroughly with de-ionised water and the microhardness measured. Six indents were obtained for each enamel specimen and each treatment was performed on six individual specimens (n=6).
The values for enamel hardness have been normalised relative to the individual baseline microhardness values, thus data at subsequent time points reflects softening of the enamel. The error bars in Graph 9 represent standard deviations.

[3] = Hydroxyapatite microplate erosion method (phosphate release after 1% citric acid, pH 3.8); settings: Example 7
Protocol: The wells of 96-well 200 μl microplates were filled with a concentrated suspension of high resolution hydroxyapatite (HA) powder (20 g HA in 200 ml acetone). The plates were allowed to dry under agitation (50 rpm on an orbital shaker) and then washed thoroughly with deionised water to remove any loose HA. For erosion experiments, the wells of the HA coated microplates were filled with deionised water and left to hydrate for 60 mins. The water was then removed and each of the 8 wells of one lane of the microplate filled with 200 μl of one of the agents to be tested. Each plate contained 12 lanes, so 6 agents could be tested in duplicate (at n=8) in each microplate. The actives were left in the wells for 30 mins under agitation, after which time the plates were again washed thoroughly with deionised water. The erosive challenge used for the study was an orange juice mimic, 1% citric acid, pH 3.8. The wells of the plate were exposed to 200 μl of the citric acid solution under agitation for 30 mins. After the acid challenge, 50 μl of the citric acid was removed from each well and placed into the corresponding well of a new 96-well microplate. 50 μl of vanadomolybdate reagent was then added to each well and after 5 mins, the absorbance of the solution in each well at 450 nm was read using a microplate plate reader. The test agents assessed using this technique were nanoparticulate zinc oxide aqueous suspension, 0.5 wt % in water, stabilised with both anionic and cationic dispersants (Nanoshield ZN-3008C and Nanoshield ZN-3014A respectively, both 70 nm average particle size and obtained from Nanophase Technologies, 1319 Marquette Drive, Romeoville, Ill. 60446. USA).
The chart contains data from one microplate, where treatments have been carried out in duplicate at n=8 each time, as described above. […] The positive control used was 300 ppm fluoride, and the negative control was deionised water.
An additional experiment was performed as described in Example 4, where the stabilising agent for the nanoparticulate zinc oxide (0.5 wt % suspension in water) was sodium hexametaphosphate (HMP) present in an amount of 2 wt % with respect to the zinc oxide (ie present in an amount of 0.01 wt %). […] The nanoparticulate zinc oxide was tested in the presence and absence of fluoride again, and at two different pH values (pH 7 and pH 9).
The experiments were performed as described in Example 4 above, using one side of a hydroxyapatite microplate (n=8). The test agents assessed in this case were a) 0.5 wt % Nanoshield ZN-3008C in water, b) 0.5 wt % zinc acetate, c) 0.5 wt % zinc citrate and d) 0.5 wt % zinc oxide (bulk material). […] Positive and negative controls used were 225 ppm fluoride and deionised water respectively.
A final hydroxyapatite microplate experiment was performed as described in Examples 4 and 5 where the stabilising agent for the nanoparticulate zinc oxide was either polyvinyl pyrrolidone (PVP) or Propylene glycol. […] The nanoparticulate zinc oxide was tested in the presence of fluoride in each case.

[4] = repeated acidic erosive challenges; placebo 13.9 μm; cited from earlier work
[5] = acidic acetate buffer at pH 4.5; cited from earlier work
[6] = 0.5 wt % in 225 ppm fluoride solution, Graph 6
[7] = 0.5 wt % in deionised water, no fluoride, Graph 5

Row | Compound | Change at 10 days (microhardness vs lesion baseline, mean) ([1]; 10 days cycling) | Post 10 days (Vickers microhardness, mean) ([1]; 10 days cycling: five 2-min 1% citric acid challenges and three 2-min treatments daily, saliva remineralisation) | Change at 20 days (microhardness vs lesion baseline, mean) ([1]; 20 days cycling) | Post 20 days (Vickers microhardness, mean) ([1]; 20 days cycling) | protection from the lactic acid buffer challenge [2] | % VHN compared to baseline, After treatment/acid challenge ([2]; n=6) [%] | preventing the demineralisation of hydroxyapatite, combination with 225 ppm fluoride compared with 225 ppm fluoride alone [3, 6] | preventing the demineralisation of hydroxyapatite, combination with 225 ppm fluoride compared with water [3, 6] | depth of complete mineral loss [4] [μm] | preventing demineralisation of hydroxyapatite, compared with water [3, 7] | preventing the demineralisation of hydroxyapatite, compared with 225 ppm fluoride [3, 7] | decreasing acid dissolution of hydroxyapatite, compared with sodium fluoride [5]
1 | [F-].[Na+] [300 ppm F, sodium fluoride] | −64.6 | 189.5 | −20.1 | 234.0 | approximately 70% | 70 |  |  |  |  |  | 
2 | O=C([O-])CC(O)(CC(=O)[O-])C(=O)[O-].O=C([O-])CC(O)(CC(=O)[O-])C(=O)[O-].[Zn+2].[Zn+2].[Zn+2] [Zinc citrate, zinc citrate] |  |  |  |  |  |  | statistically inferior to fluoride alone | statistically superior to water | 10.7 |  |  | 
3 | CC(=O)[O-].CC(=O)[O-].[Zn+2] [zinc acetate] |  |  |  |  |  |  | directionally superior but statistically equivalent to 225 ppm fluoride alone |  |  | statistically superior to water | statistically inferior to both the stabilised nanoparticulate zinc oxide and 225 ppm fluoride | almost as effective as sodium fluoride
